Data as given in US8637045B2, “Therapy for lysosomal enzyme deficiencies” (University of Massachusetts, priority 2004, dated 2014).

Assays:
β-glucosidase = target: T1, β-glucosidase (Mus musculus, UniProt P17439); experiment: Gaucher mouse model produced with conduritol beta-epoxide; type: in vivo, mice
T1 construct: from tissue; host or cells: tissues of C57/Bl mice dosed in vivo with CBE
T1 sequence (P17439 20-515): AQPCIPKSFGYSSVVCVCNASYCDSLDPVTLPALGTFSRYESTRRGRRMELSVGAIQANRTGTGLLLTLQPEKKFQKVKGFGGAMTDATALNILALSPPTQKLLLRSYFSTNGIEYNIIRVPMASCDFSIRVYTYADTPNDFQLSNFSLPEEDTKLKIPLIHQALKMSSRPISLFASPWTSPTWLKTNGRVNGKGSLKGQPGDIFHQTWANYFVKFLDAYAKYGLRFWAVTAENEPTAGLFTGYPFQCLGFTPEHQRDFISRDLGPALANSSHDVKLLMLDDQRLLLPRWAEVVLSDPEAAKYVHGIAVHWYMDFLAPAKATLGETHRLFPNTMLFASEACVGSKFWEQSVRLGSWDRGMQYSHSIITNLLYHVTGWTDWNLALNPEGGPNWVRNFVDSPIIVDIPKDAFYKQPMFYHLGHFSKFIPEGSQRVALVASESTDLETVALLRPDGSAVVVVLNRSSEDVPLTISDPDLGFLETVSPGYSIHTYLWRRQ
Method: Two mouse models of Gaucher disease were used. The first Gaucher mouse was produced by injecting C57/Bl mice with 100 mg/kg of conduritol beta-epoxide, (CBE, 7-oxabicyclo[4.1.0]heptane-2,3,4,5-tetrol), intraperitoneally daily for 3 weeks. Three weeks of treatment of 3 month old C57/Bl mice with CBE produced an approximately 50% and 500% increase in the amount of glucosylceramide in systemic tissues and brain, respectively. […] No weight or behavioral differences occurred in 3 month old treated mice. […] Expressed as percentages of total body weight there was no difference for brain, liver, and kidney, but the spleen weight was 60% of control. […] There was a 50% and 300% increase in glucocerebroside in liver tissue and brain, respectively.

S. aureus = S. aureus killing by J774 murine macrophages loaded with YGP particles; type: cell-based
Method: One ml of murine macrophages, J774 (5×10^5/ml) was combined with YGP, YGP:alginate—tet or tetracycline of various concentration as summarized in Table 6, above.
The J774 cells were cultured overnight in medium (DMEM containing 10% fetal calf serum without antibiotics or glutamine). […] The microbial killing assay was set up in 96 well plates. The cultures were diluted in medium and incubated overnight to allow for metabolism and release of tet from phagocytosed YGP:alginate—tet particles. Bacterial challenge was added as indicated in Table 7 and the cultures were incubated 2 hours at 37 degrees Celsius in a CO2 incubator to permit S. aureus phagocytosis and killing by the J774 murine macrophages. After this incubation, 200 μl LB Broth (Luria-Bertani Broth: 1.0% tryptone, 0.5% yeast extract, 1.0% NaCl) was added to each culture to lyze the macrophages. Cultures were incubated at 37 degrees Celsius in an incubator to permit outgrowth of surviving S. aureus. Growth was monitored by change in pH as indicated by phenol red. The effects of YGP, YGP:alginate—tet or tetracycline were compared.

[1] = 3 month old C57/Bl mice, 100 mg/kg intraperitoneally daily for 3 weeks
[2] = 1 day old infant C57/Bl mice, 100 mg/kg IP daily for 3 weeks

SMILES	increase in the amount of glucosylceramide in brain (β-glucosidase; [1])	increase in the amount of glucosylceramide in systemic tissues (β-glucosidase; [1])	increase in glucocerebroside in brain (β-glucosidase; [2])	increase in glucocerebroside in liver tissue (β-glucosidase; [2])	spleen weight (as percentage of total body weight) (β-glucosidase; [2])	β-glucosidase activity (β-glucosidase; C57/Bl mice, 100 mg/kg intraperitoneally daily for 3 weeks)	S. aureus Killed (S. aureus; with J774, 1.25 μg/ml)	Fold Increased Killing (S. aureus; with J774, 2.5 μg/ml)	S. aureus Killed (S. aureus; with J774, 2.5 μg/ml)	S. aureus Killed (S. aureus; with J774, 5 μg/ml)	S. aureus Killed (S. aureus; with J774, 10 μg/ml)	Fold Increased Killing (S. aureus; without J774, 1.25 μg/ml)	S. aureus Killed (S. aureus; without J774, 1.25 μg/ml)	S. aureus Killed (S. aureus; without J774, 2.5 μg/ml)	S. aureus Killed (S. aureus; without J774, 5 μg/ml)	S. aureus Killed (S. aureus; without J774, 10 μg/ml)
OC1C(O)C(O)C2OC2C1O (stereo not shown) [CBE, 7-oxabicyclo[4.1.0]heptane-2,3,4,5-tetrol]	~500%	approximately 50%	300%	50%	60 % of control	drastic reduction										
CN(C)[C@@H]1C(O)=C(C(N)=O)C(=O)[C@@]2(O)C(O)=C3C(=O)c4c(O)cccc4[C@@](C)(O)[C@H]3C[C@@H]12 [tet, tetracycline]							1 × 10^6	3.3	1 × 10^7	>1 × 10^8	>1 × 10^8	1	1 × 10^6	3.3 × 10^6	>1 × 10^8	>1 × 10^8
